Common to all, as to type: cell-based
For one series, the system named is intracellular ROS. Kind of series: Detection of ROS production by DCF-DA flow cytometry. Conditions: PANC-1, A549 and H358 cells, 24 h. As to the method: Intracellular ROS generation was measured by DCF-DA fluorescence probe using flow cytometry. Briefly, A549, H358 and PANC-1 cells (1×10^5 cells/well) were seeded in a six-well plate, and different concentrations of deltarasin were added into the wells. After treatment with deltarasin for 24 h, the treated cells were detached with trypsin, and washed twice with PBS and incubated with 10 μM DCF-DA for 30 min at 37° C. in the dark, the fluorescence-stained cells were then analyzed using a FACS BD Aria III flow cytometer.
A general note: Flow cytometry measures light scatter and fluorescence of single cells or particles in a stream.

Series [1] has as its system A549 cells. In words: Cell viability assay (MTT). As to the method:
[…] At the end of the incubation, 10 μl of MTT (5 mg/mL, Sigma) were added into each well for 4 h at 37° C., then the crystals were dissolved in 100 μl of the resolved solution (10% SDS and 0.1 mM HCL). The absorbance at 570 nm was measured using a microplate reader (Tecan, Morrisville, N.C., USA). The cell viability was calculated relative to untreated controls. At least 3 independent experiments were performed and the data were plotted as curve graph.

Series [2] concerns A549 cells. In words: Cell apoptosis assay, Annexin V/PI flow cytometry. Conditions: 24 h. As to the method: (§1) Apoptosis was measured using the Annexin V-FITC apoptosis detection kit (BD Biosciences, San Jose, Calif., USA), according to the manufacturer protocol. Briefly, A549, H358 and PANC-1 cells (1.0×10^5 cells/well) were allowed to attach in a six-well plate for 24 h, cells were treated with deltarasin for 24 h. Subsequently, cells were trypsinized, washed with PBS and stained with 100 μL binding buffer containing 2 μl Annexin-V FITC (2.5 μg/ml) and 5 μl propidium iodide (PI) (50 μg/ml) incubated in the dark at room temperature for 15 min, before further addition of 400 μl of 1×Annexin-binding buffer. The stained cells were analyzed quantitatively using a BD Aria III Flow Cytometer (BD Biosciences, San Jose, Calif., USA). Data were analyzed by Flow Jo software.

In another series the test system is PARP, Bcl-2 and Bax. Kind of series: Western blot of apoptosis-related proteins in A549 cells. Conditions: 24 h. As to the method:
(§2) Cells were washed twice with cold PBS and then lysed in RIPA lysis buffer containing protease and phosphatase inhibitors. Protein concentration of the cell lysate was measured by using the Bio-Rad protein assay kit (Bio-Rad, Philadelphia, Pa., USA). After equalizing the protein concentrations of the samples, 5×laemmli buffer was added and boiled at 100° C. for 5 min. Equal amounts of protein (20-40 μg per lane) were separated with a 10% SDS-PAGE gel, then the separated proteins were transferred to a nitrocellulose (NC) membrane, which was then exposed to 5% non-fat dry milk in TBS contains 0.1% Tween 20 (0.1% TBST) for 1 h at room temperature with constant agitation, followed by overnight incubation at 4° C. with primary anti-bodies. After washing 3 times with TBST, the membranes were incubated with secondary rabbit or mouse fluorescent antibodies, then the signal intensity of the membranes was detected by anLI-COR Odessy scanner (Belfast, Me., USA). All primary antibodies were diluted in 1:1000, while their recommended secondary antibodies were diluted in 1:10000.

The next series concerns LC3-II. In words: Western blot of LC3-I to LC3-II conversion (autophagy). The following applies: 24 h; for accumulation of LC3-II under deltarasin: A549 cells. As to the method:
as §2

Series [3] relates to A549 cells. Kind of series: GFP-LC3 puncta formation in transfected A549 cells. The following applies: 24 h. As to the method:
GFP-LC3 expression vector was utilized to monitor and quantify the induction of autophagy following the 3rd autophagy guidelines. A549 cells were seeded at a density of 2×10^5 cells/well in 6-well plates, according to the manufacturers instructions. Lipofectamine™ 2000 was incubated with GFP-LC3 in Opti-MEM reduced serum medium for 20 min at room temperature. The mixture was added drop by drop to the cells and then incubated for 4-6 h. The DNA/Lipofectamine™ 2000 medium was replaced by fresh medium and cultured for another 24 h. […] The percentage of autophagic cells was calculated by counting the number of the cells showing increased punctuate pattern of LC3 fluorescence (≧10 dots/cell) in immunofluorescence positive cells over the total number of cells in the same field. A minimum of 300 cells from randomly selected fields were scored.

Another series deals with PANC-1 cells. Kind of series: Cell viability assay (MTT). The following applies: Homo sapiens, 72 h. As to the method: (§3) 3000 cells were seeded at 96-well plates and cultured overnight for cell adhesion, and treated with DMSO or various concentrations of deltarasin for 72 h. At the end of the incubation, 10 μl of MTT (5 mg/mL, Sigma) were added into each well for 4 h at 37° C., then the crystals were dissolved in 100 μl of the resolved solution (10% SDS and 0.1 mM HCL). The absorbance at 570 nm was measured using a microplate reader (Tecan, Morrisville, N.C., USA). The cell viability was calculated relative to untreated controls. At least 3 independent experiments were performed and the data were plotted as curve graph.

Series [4] deals with H358 cells. Kind of series: Cell viability assay (MTT). The following applies: Homo sapiens, NCI-H358, 72 h. As to the method: as §3
For series [5], the system named is A549 cells. Kind of series: Colony formation assay. Conditions: 10 days. As to the method: Detailed procedures of colony formation assay were described previously (Franken, N. A., et al., Nature protocols, 2006, 1(5):2315-2319). A549 cells were seeded in a six-well plate at a density of 500 cells per well. The cells were exposed to various concentrations of deltarasin. After 10-14 days, the colonies were fixed with 4% paraformaldehyde and stained with 0.5% (0.5% w/v) crystal violet solutions, the number of colonies were counted under a dissecting microscope.

For series [6], the system named is H358 cells. Kind of series: Cell apoptosis assay, Annexin V/PI flow cytometry. Conditions: 24 h, deltarasin 5 μM, 3-MA 5 mM where co-treated. As to the method:
as §1

Series [7] relates to c-Raf, Akt and ERK phosphorylation. Kind of series: Western blot of KRAS downstream signalling. Conditions: PANC-1, A549 and H358 cells, 24 h, 0-5 μM. As to the method:
as §2
Background: In western blotting, separated proteins are transferred to a membrane and probed.

Series [8] concerns AMPK-mTOR signaling pathway. Kind of series: Western blot of AMPK-mTOR pathway in A549 cells. Conditions: 0-5 μM, 24 h. As to the method:
as §2

The next series concerns KRAS. Kind of series: Immunofluorescence of KRAS cellular localization in A549 cells. Conditions: 5 μM, 24 h. As to the method: Cells were plated on 6-well plates and grown overnight, then treated with 5 μM deltarasin or 5 mM 3-MA for 24 h. Cells were fixed with 4% paraformaldehyde for 20 min at 4° C., followed by permeabilized with 0.2% Triton X-100 in PBS for 10 min. Subsequently, the cells were blocked with 2% BSA/PBS for 30 min at room temperature, then incubated with KRAS antibody (1:100) overnight at 4° C., followed by the secondary antibody (1:500) for 1 h at room temperature. The nuclear was stained with 1 μg/ml Hoechst staining for 10 min in the dark. The cells were visualized using fluorescent microscopy.

A further series concerns GTP-RAS. Kind of series: RAS activation assay (Raf1 RBD pull-down) in A549 cells. The following applies: 5 μM, 24 h. As to the method:
A549 cells were treated with deltarasin for 24 h at 5 μM. Cells were lysed in lysis buffer, adjusted the volume of each sample to 1 ml with 1×Assay Lysis Buffer. Then 40 μl of the Raf1 RBD Agarose bead slurry was swiftly added to each samples. The samples were incubated at 4° C. for 1 h with gentle agitation. The beads were washed 3 times with cold lysis buffer, and bounded protein was resuspended in 40 μl of 2×reducing SDS-PAGE sample buffer and heated at 100° C. for 5 min. The level of […] was detected after SDS-PAGE followed by Western blot.

SMILES strings stand for the structures.

For `CC(=O)N[C@@H](CS)C(=O)O` [NAC, N-acetyl cysteine], the “high level of ROS induced by deltarasin” value with intracellular ROS (5 μM deltarasin plus 5 μM NAC) is reported as “suppressed”. Moreover, in the series on A549 cells [1] (5 μM deltarasin plus 5 μM NAC, 24 h), the deltarasin-induced cell cytotoxicity result was “decreases”. The deltarasin-induced apoptosis entry in the series on A549 cells [2] (5 μM deltarasin plus 5 μM NAC) is “decreases”. The “PARP cleavage under deltarasin” value with PARP, Bcl-2 and Bax (5 μM deltarasin plus 5 μM NAC) is given as “suppressed”. The “accumulation of LC3-II under deltarasin” value in the series with LC3-II (5 μM deltarasin plus 5 μM NAC) was “suppressed”.
On to `Cn1cnc(N)c2ncnc1-2` [3-MA, 3-methyladenine], for which the “accumulation of LC3-II induced by deltarasin” value with LC3-II (PANC-1, A549 and H358 cells, 5 μM deltarasin plus 5 mM 3-MA) is given as “suppressed”. Besides, the “number of GFP-LC3 puncta under deltarasin” value in the series with A549 cells [3] (5 μM deltarasin plus 5 mM 3-MA) is recorded as “significantly diminished”.
As a reminder, the IC50 is the concentration at which inhibition is half-maximal. The low end stands for inhibition by little substance, the high end for a need for much substance. With `c1ccc(Cn2c(-c3ccc(OC[C@H](C4CCNCC4)n4c(-c5ccccc5)nc5ccccc54)cc3)nc3ccccc32)cc1` [deltarasin], the IC50 in the series with PANC-1 cells stood at 3.86 ± 0.96 µM; in the series on H358 cells [4], 4.21 ± 0.72 µM; with A549 cells [1] (Homo sapiens, 72 h, MTT) it was 5.29 ± 0.7 µM. Moreover, in the series with intracellular ROS (5 μM), the “intracellular ROS levels” value is “significantly elevated”. The colony formation capacity result in the series on A549 cells [5] (0-5 μM) is given as “significantly inhibits”. Moreover, the colonies formed entry in the series with A549 cells [5] (5 μM) is “no visible colonies”. Besides, the “induction of apoptosis vs untreated cells” value in the series with A549 cells [2] (5 μM) is “significantly induced apoptosis”. Further, the cell apoptosis with A549 cells [2] (deltarasin 5 μM, 3-MA 5 mM where co-treated) is listed as 11.25%; in the series with H358 cells [6], 15.99%. Besides, in the series with PARP, Bcl-2 and Bax (5 μM), the “cleavage of PARP” value is recorded as “induction of the cleavage of PARP”. The “expression of anti-apoptotic protein Bcl-2” value in the series with PARP, Bcl-2 and Bax is “reduction”. In the series on PARP, Bcl-2 and Bax, the “expression of pro-apoptotic protein Bax” value is recorded as “increase”. Moreover, the “c-Raf, Akt and ERK phosphorylation” value in [7] is listed as “inhibited”. In the series with LC3-II (PANC-1, A549 and H358 cells, 0-5 μM, dose-dependent), the “conversion of LC3-I to LC3-II” value is recorded as “distinctly facilitated”. In the series with A549 cells [3] (5 μM, vs untreated control), the GFP-LC3 puncta formation entry is on record as “increased percentage”. Moreover, the “mTOR and p70S6K phosphorylation” value in [8] is “suppressed”. Further, in [8], the p-AMPK level result is listed as “up-regulation”. In addition, the KRAS cellular localization result in the series with KRAS was “reduced the amount of KRAS protein at the plasma membrane and displaced KRAS into the cytoplasm”. The “binding of GTP to c-Raf-1 binding domain (KRAS-GTP level)” value in the series on GTP-RAS is on record as “significantly inhibited”.
Regarding `c1cc(-c2cnn3cc(-c4ccc(OCCN5CCCCC5)cc4)cnc23)ccn1` [compound C], the “accumulation of LC3-II under deltarasin” value in the series on LC3-II (5 μM deltarasin plus 5 μM Compound C) is given as “suppressed”.

Source of the values: patent US9861623B1, “Combination treatment of RAS-positive diseases with PDE-δ inhibitor and direct autophagy inhibitor” (Macau University of Science and Technology, priority 2016, dated 2018).
